Like-named read-outs stand apart in the source and are kept apart here.
Tested on: VEGF-A mRNA expression in macrophages (RAW264.7)
Experiment: In vitro macrophage experiment: activity of compounds to promote VEGF-A mRNA expression (RT-qPCR)
Type: cell-based
Details: Mus musculus, read-out: Expression level of VEGF-A mRNA
Excerpt: 1.1. Specific steps for activity screening: 1-10×10^6 macrophages (RAW264.7) in logarithmic growth phase were transferred to a cell culture plate. The test compounds (Compounds TG-001, TG-002, TG-003, TG-004, TG-005, TG-006, TG-007, TG-008, TG-009, TG-010, TG-011, TG-012, TG-013, TG-014, TG-015, TG-016, TG-017, TG-018, TG-019, TG-020, TG-021, TG-022, TG-023, TG-024, TG-025, TG-026, TG-027, TG-028, TG-029, TG-030, TG-031, TG-032, TG-033, TG-034, TG-035, TG-036, TG-037, TG-045, TG-039, TG-040 TG-041, TG-042, TG-043, TG-044, TG-045, TG-052, TG-053, TG-054, TG-047, TG-048, TG-046, TG-049, TG-050, TG-051, TG-055 and TG-056) were respectively diluted into various concentrations, and separately added to the cell culture plate containing macrophage. The cells were cultured for 3 h in a complete medium (RPMI 1640 medium:fetal bovine serum:tri-resistance screening agent (i.e. penicillin-streptomycin-gentamicin, Beijing Leagene Biotechnology Co., Ltd.)=89:10:1 based on volume) in a cell incubator at 37° C. and 5% CO2. The cells were lyzed by Trizol (Beijing ComWin Biotech Co., Ltd) to extract RNA, and the RNA concentration was measured using a microvolume nucleic acid and protein analyzer (Nanodrop2000c). The required volume V of RNA was calculated according to the RNA concentration, and the RNA reverse transcription reaction system was prepared according to Table 1. Then RNA reverse transcription (cDNA synthesis) (RT Easy™ I (For first-strand cDNA synthesis) Reverse Transcription Kit, Chengdu ForeGene Biotechnology Co., Ltd.) was carried out according to the conditions described in Table 2. The resulting cDNA was used to prepare a fluorescence quantitative PCR reaction solution according to Table 3. The fluorescence quantitative PCR reaction conditions were set according to Table 4, and the fluorescence quantitative PCR reaction (Real time PCR Easy™-SYBR Green Fluorescence Quantification Kit, Chengdu ForeGene Biotechnology Co., Ltd.) was performed using cDNA from the reverse transcription reaction as a template. The relative expression level 2^−ΔΔCt of the target gene was calculated from the Ct value of each sample with the blank control group as a control and β-Actin as an internal reference.
Based on the maximum level of VEGF-A mRNA expression promoted by a drug at a certain concentration, the activity of the drug was determined. The expression level of VEGF-A mRNA in macrophages was defined as 1 when no drug was added. Using a traditional Chinese medicine injection Salvianolate that is used in the treatment of Cardio-cerebrovascular disease and promotes a maximum level of VEGF-A mRNA expression of 6 in macrophages (the results are shown in Table 5) as a judgment standard, the compound promoting a maximum level of VEGF-A mRNA expression of 4 or more in macrophage was a target compound. That is, when the maximum level of VEGF-A mRNA expression in macrophages promoted by the test compound is over 4-fold higher than the expression level of VEGF-A mRNA in macrophages without the addition of the test compound, the test compound was a preliminary target compound promoting angiogenesis.

[1] = 1 μM, RAW264.7 macrophages, 3 h, relative expression 2^-ΔΔCt, no drug = 1
[2] = 0.1 mM, RAW264.7 macrophages, 3 h, relative expression, no drug = 1
[3] = 0.5 mM, RAW264.7 macrophages, 3 h, relative expression, no drug = 1
[4] = 1 mM, RAW264.7 macrophages, 3 h, relative expression, no drug = 1
[5] = 2 mM, RAW264.7 macrophages, 3 h, relative expression, no drug = 1
[6] = 3 mM, RAW264.7 macrophages, 3 h, relative expression, no drug = 1

Compound | fold induction at 1 µM [1] | fold induction at 100 µM [2] | fold induction at 500 µM [3] | fold induction at 1000 µM [4] | fold induction at 2000 µM [5] | fold induction at 3000 µM [6] | fold induction at 1 µM (RAW264.7, 3 h) | fold induction at 100 µM (RAW264.7, 3 h) | fold induction at 500 µM (RAW264.7, 3 h) | fold induction at 1000 µM (RAW264.7, 3 h) | fold induction at 2000 µM (RAW264.7, 3 h) | fold induction at 3000 µM (RAW264.7, 3 h)
OC[C@H]1O[C@@H](OCCCCc2ccc(OCC3CCC3)cc2)[C@H](O)[C@@H](O)[C@@H]1O [TG-021] | 0.87 | 2.69 | 3.81 | 4.24 | 9.2 | 7.96 | – | – | – | – | – | –
OC[C@H]1O[C@@H](OCCCCc2ccc(OCc3ccccn3)cc2)[C@H](O)[C@@H](O)[C@@H]1O [TG-022] | 2.31 | 0.91 | 1.43 | 1.68 | 1.89 | 0.66 | – | – | – | – | – | –
OC[C@H]1O[C@@H](OCCCCc2ccc(O)cc2)[C@H](O)[C@@H](O)[C@@H]1O [TG-023] | 0.16 | 0.55 | 0.71 | 0.5 | 0.19 | 0.71 | – | – | – | – | – | –
CCOc1ccc(CCCCO[C@@H]2O[C@H](CO)[C@@H](O)[C@H](O)[C@H]2O)cc1 [TG-024] | 1.82 | 1.14 | 1.64 | 4.86 | 8.38 | 4.32 | – | – | – | – | – | –
OC[C@H]1O[C@@H](OCCCCc2ccc(OCC3COC3)cc2)[C@H](O)[C@@H](O)[C@@H]1O [TG-025] | 1.62 | 1.78 | 1.43 | 2.15 | 9.69 | 2.06 | – | – | – | – | – | –
OC[C@H]1O[C@@H](OCCCCc2ccc(OCc3ccc(C(F)(F)F)cc3)cc2)[C@H](O)[C@@H](O)[C@@H]1O [TG-026] | 1.44 | 6.85 | 7.92 | 8.13 | 7.92 | 8.16 | – | – | – | – | – | –
OC[C@H]1O[C@@H](OCCCCc2ccc(OCc3cccc(F)c3)cc2)[C@H](O)[C@@H](O)[C@@H]1O [TG-027] | 1.66 | 6.36 | 3.83 | 3.93 | 1.07 | 0.43 | – | – | – | – | – | –
COc1ccc(CCCCO[C@H]2O[C@@H](CO)[C@H](O)[C@@H](O)[C@@H]2O)cc1 [TG-029] | 2.21 | 1.51 | 1.02 | 1.54 | 2.6 | 2.3 | – | – | – | – | – | –
COc1ccc(CCCCO[C@@H]2O[C@H](CO)[C@H](O)[C@H](O)[C@H]2O)cc1 [TG-030] | 0.43 | 0.32 | 0.09 | 0.19 | 0.19 | 0.37 | – | – | – | – | – | –
COc1ccc(OCCCO[C@@H]2O[C@H](CO)[C@@H](O)[C@H](O)[C@H]2O)cc1 [TG-031] | – | – | – | – | – | – | 0.2 | 0.18 | 0.11 | 2.57 | 1.39 | 0.7
COc1ccc(COCCO[C@@H]2O[C@H](CO)[C@@H](O)[C@H](O)[C@H]2O)cc1 [TG-032] | – | – | – | – | – | – | 2.79 | 4.89 | 0.92 | 3.68 | 1.83 | 0.96
COc1ccc(CN(CCO[C@@H]2O[C@H](CO)[C@@H](O)[C@H](O)[C@H]2O)C(=O)OC(C)(C)C)cc1 [TG-033] | – | – | – | – | – | – | 0.95 | 1.87 | 38.9 | 3.76 | 0.99 | 0.04
COc1ccc(CN(CCO[C@@H]2O[C@H](CO)[C@@H](O)[C@H](O)[C@H]2O)C(=O)OCc2ccccc2)cc1 [TG-034] | – | – | – | – | – | – | 1.36 | 1.32 | 4.44 | 2.93 | 7.16 | 5.43
COc1ccc(N(CCCO[C@@H]2O[C@H](CO)[C@@H](O)[C@H](O)[C@H]2O)C(=O)OCc2ccccc2)cc1 [TG-035] | – | – | – | – | – | – | 1.66 | 0.44 | 1.72 | 1.06 | 0.55 | 0.2
COc1ccc(CNCCO[C@@H]2O[C@H](CO)[C@@H](O)[C@H](O)[C@H]2O)cc1 [TG-036] | – | – | – | – | – | – | 1.19 | 1.39 | 0.32 | 1.09 | 0.43 | 1.75
COc1ccc(NCCCO[C@@H]2O[C@H](CO)[C@@H](O)[C@H](O)[C@H]2O)cc1 [TG-037] | – | – | – | – | – | – | 1.3 | 0.62 | 1.77 | 1.69 | 1.8 | 3.23
CC(C)Oc1ccc(CCCCO[C@@H]2O[C@H](CO)[C@@H](O)[C@H](O)[C@H]2O)cc1 [TG-038] | 0.79 | 1.06 | 0.96 | 1.71 | 1.32 | 1.29 | – | – | – | – | – | –
OC[C@H]1O[C@@H](OCCCCc2ccc(OCC3CC3)cc2)[C@H](O)[C@@H](O)[C@@H]1O [TG-039] | 1.18 | 2.67 | 9.43 | 1.7 | 0.3 | 0.18 | – | – | – | – | – | –
